How the values were obtained:
[1] = system: human brain microvascular endothelial cell (BMEC); experiment: sAPP770 secreted from BMEC detected by APP770 ELISA; type: cell-based; settings: culture 16 hr, n=4; for level of sAPP770 secreted from BMEC: cytokine 100 ng/ml
Text: (A) Brief explanations of APP total ELISA and APP770 ELISA. The recognition sites of a trap antibody (with asterisk) and a detection antibody (without asterisk) in these ELISA systems are shown in the schematic drawing. (B) Western blot analysis. Anti-N terminal APP (22C11) antibody detects full-length APP695, APP751 and APP770 in the lysates of COS cells overexpressing APP695, APP751 and APP770, whereas anti-OX2 antibody used as a trap antibody in APP770 ELISA specifically recognizes APP770. (C) APP total ELISA detects sAPP695, sAPP751 and sAPP770 secreted from COS cells, whereas APP770 ELISA detects only sAPP770. (D) BMEC was cultured for 16 hr in the presence or absence of inflammatory cytokine (TNFα, IL-1β or IL-6; each 100 ng/ml), and sAPP770 secreted from the cells was detected by APP770 ELISA. […] (E) An influence on secretion of sAPP770 from BMEC by culture for 16 hr in the presence of TAPI-0 (10 μM). […] (F) The sAPP770 levels of human serum and human plasma samples are shown in mean±SEM (n=19).
Human APP695-pcDNA3.1, APP751-pcDNA3.1 and APP770-pcDNA3.1 used were those constructed in the previous study (J Biol Chem 285(51):40097-40103 (2010)). Human BMEC (Applied Cell Biology Research Institute) was cultured in CS-C complete medium added with 10% FBS, and used within 4 passages.
Using human sAPP total assay kit (IBL-Japan), sAPP695, sAPP751 and sAPP770 were detected according to the established protocol (http://www.ibl-japan.co.jp). The APP770 ELISA system was established as previously reported (Anal Chim Acta 631(1): 116-120 (2009)). Briefly explained, a 96 well plate was coated with an anti-OX2 antibody, and a horseradish peroxidase-conjugated anti-APP R101A4 antibody was used as a detection antibody. Human CSF (1:16 diluted with dilution buffer contained in kit), plasma and serum (1:75 diluted with dilution buffer contained in kit) were evaluated by APP total ELISA and APP770 ELISA.

platelets = experiment: release of sAPP770 from collagen-stimulated platelets (PRP), APP770 ELISA; type: cell-based, human; settings: collagen final concentration 3 μg/ml
Experimental: (A, B) PRP was stirred under stimulation with collagen (final concentration 3 μg/ml). At the time points shown in the Figure, each sample was centrifuged, and supernatant (A) […] and platelet pellet (B) were analyzed by APP770 ELISA. (C) Platelets were washed, stimulated with collagen, centrifuged, and sAPP770 released in the supernatant was analyzed. (D) Schematic drawing showing APP770 and the sites recognized by a series of anti-APP antibodies. (E) After stimulation of platelets with collagen and, at the time points shown in the Figure, the platelet pellets were solubilized, sAPP was pulled down from the platelet release product, and analyzed by western blotting using anti-APP(22C11) antibody, anti-OX2 antibody, anti-APP(C) antibody and anti-KPI antibody. […]
On the day of experiment, blood (16 ml) was collected from healthy human by using a vacuum blood collection tube (NIPRO CORPORATION) containing 3.8% sodium citrate. […] The obtained cell lysate was evaluated by ELISA and Western blot analysis.
Using human sAPP total assay kit (IBL-Japan), sAPP695, sAPP751 and sAPP770 were detected according to the established protocol (http://www.ibl-japan.co.jp). […] Human CSF (1:16 diluted with dilution buffer contained in kit), plasma and serum (1:75 diluted with dilution buffer contained in kit) were evaluated by APP total ELISA and APP770 ELISA.

Row | Compound | level of sAPP770 secreted from BMEC [1] | further results
1 | IL-1β: recombinant human inflammatory cytokine from R&D Systems | significantly increased only slightly | –
2 | CC(C)C[C@H](CC(=O)NO)C(=O)N[C@@H](Cc1ccc2ccccc2c1)C(=O)N[C@@H](C)C(N)=O [TAPI-0] | – | secretion of sAPP770 from BMEC ([1]; TAPI-0 10 μM): partially inhibited
3 | collagen | – | level of sAPP770 in the platelet precipitate (platelets; after stimulation): decreased remarkably; level of sAPP770 in the PRP supernatant (platelets; one minute after stimulation): increased rapidly
4 | TNFα | significantly increased only slightly | –
5 | IL-6: recombinant human inflammatory cytokine from R&D Systems | did not increase | –
